The text below walks through data of article doi:10.1101/2025.11.25.689777, “NanoBRET Tracer Development for Class I Bromodomain Target Engagement in Live Cells” (bioRxiv, 2025).

Where two headings read alike, the source gives them in different places.

The target in data set [1] is T1, BPTF-BRD-Nluc (Homo sapiens, UniProt Q12830). Put plainly: Competition NanoBRET target engagement, inhibitors vs MS-1 tracer on BPTF-BRD-Nluc in HEK293T cells. As to conditions: for inhibition of the BPTF-BRD in NanoBRET titration: BPTF-BRD-Nluc, 0.5 μM MS-1. A general note: In BRET a luciferase serves as donor, and the signal depends on an acceptor being close.
Excerpt: One assay which can be used to determine bromodomain inhibitor engagement in live cells is known as NanoBRET based on bioluminescent resonance energy transfer. NanoBRET requires a nanoluciferase (Nluc) enzyme to be fused to a protein of interest at either the N- or C-terminus of the protein and expressed in cells. Secondly, a small molecule tracer must be developed which contains the protein ligand, linker, and fluorophore. […] The ligand binds to the protein, and the BODIPY fluorophore has a structural requirement to be in proximity of less than 10 nm to the Nluc enzyme. Finally, when the Nluc substrate furimazine is added, Nluc oxidatively converts the substrate into furimamide, CO2, and light.[7],[8] The energy from the bioluminescence can be transferred to the BODIPY fluorophore leading to the BRET signal. When unlabeled bromodomain inhibitors are added, the tracer is displaced resulting in a dose-dependent reduction in BRET (Figure 1A).
MS-1 was next assessed for its utility in a competition-based NanoBRET experiment for the determination of live cell bromodomain engagement.
HEK293T Cell Culture and Transfection
(§1) HEK293T cells were cultured in DMEM, 10% FBS, 5% penicillin-streptomycin and incubated at 37 °C with 5% CO 2. The NanoBRET assay was executed based on the Promega NanoBRET TE 590 Dyes technical protocol. HEK293T cells (200,000 cells/mL) were transiently transfected with each target-NanoLuc fusion vector. A 10 μg/mL solution of lipid:DNA complexes containing each fusion vector were prepared with 9.0 μg/mL of transfection carrier DNA (Promega), 1.0 μg/mL of target-NanoLuc fusion vector DNA
(§2) (Promega), and 1 mL of Opti-MEM I. FuGENE HD Transfection Reagent (Promega) was added at a concentration of 30 μL per mL of DNA mixture. The lipid:DNA complex mixture was inverted five times and allowed to incubate for 20 minutes at room temperature.
(§3) Lipid:DNA complex was then added to HEK293T cells in a 1:20 lipid:DNA complex to cells ratio. The subsequent mixture was inverted and dispensed into sterile tissue culture flasks at a density between 55,000 and 80,000 cells/cm 2. The cells were incubated for 20 – 30 hours at 37 °C, 5% CO 2. Following incubation, the transfected cells were then adjusted to a density of 200,000 cells/mL in Opti-MEM I.
General NanoBRET Assay Protocol
BRET assays were performed using white, 384-well tissue-culture-treated plates (Corning HEK293T cells were plated at 7 x 10^3 cells per well. Stock DMSO solutions of each novel BRET tracer to be tested were diluted in Tracer Dilution Buffer (Promega) to achieve a 20X concentration by adding 4:1 Tracer Dilution Buffer to 1 part 100X tracer.
BPTF-BRD BRET assays were conducted using a final MS-1 concentration of 0.5 μM, and PCAF, GCN5, and CECR2 used a final MS-1 concentration of 1 μM. Stock DMSO solutions of inhibitors were diluted to a 1,000X concentration in 100% DMSO and subsequently dissolved to a final 10X concentration in Opti-MEM. Upon addition of the tracer and inhibitor, the cells were incubated for 2 hours at 37 °C, 5% CO 2.
For data set [2], the target named is T2, BPTF-BRD (Homo sapiens, UniProt Q12830). The arrangement: method as in PMID 34375106. The conditions noted are these: read-out: Lit. Values: BRET EC50; cited from earlier work.
The conditions of data set [3]: legend calls it literature permeability data; cited from earlier work.
The target of data set [4] is T2, BPTF-BRD. As to conditions: ITC; cited from earlier work. For orientation: Isothermal titration calorimetry measures the heat released or taken up as one component is titrated into another.
Data set [5] concerns the target T3, PCAF-Nluc (Homo sapiens, UniProt Q92831).
T3 construct: two constructs of full-length PCAF containing either N- or C-terminal Nluc; host or cells: HEK293T
In words: Competition NanoBRET on full-length PCAF-Nluc with MS-1 in HEK293T cells. It counts as cell-based.
Description: First, engagement of MS-1 with full-length PCAF was investigated. MS-1 was titrated against two constructs of full-length PCAF containing either N- or C-terminal Nluc to determine the optimal position of the Nluc enzyme.
HEK293T Cell Culture and Transfection
as §1, §2, §3
General NanoBRET Assay Protocol […]
(§4) BPTF-BRD BRET assays were conducted using a final MS-1 concentration of 0.5 μM, and PCAF, GCN5, and CECR2 used a final MS-1 concentration of 1 μM. […] BRET was then measured in a Tecan Spark plate reader following a 30 second orbital shake with an amplitude of 1 mm and frequency of 510 rpm. Luminescence was measured using the luminescence […]
(§5) DMSO control wells with no tracer and no inhibitor for background correction as well as control wells with tracer and no inhibitor to determine the maximal assay window. For both tracer and inhibitor titration plots, a BRET ratio for each concentration was calculated as acceptor response divided by donor response. […]

For data set [6], the target named is T4, GCN5-Nluc (Homo sapiens, UniProt Q92830).
T4 construct: The C-terminal full-length GCN5-Nluc construct was titrated against MS-1; host or cells: HEK293T
T4 sequence (Q92830 whole entry): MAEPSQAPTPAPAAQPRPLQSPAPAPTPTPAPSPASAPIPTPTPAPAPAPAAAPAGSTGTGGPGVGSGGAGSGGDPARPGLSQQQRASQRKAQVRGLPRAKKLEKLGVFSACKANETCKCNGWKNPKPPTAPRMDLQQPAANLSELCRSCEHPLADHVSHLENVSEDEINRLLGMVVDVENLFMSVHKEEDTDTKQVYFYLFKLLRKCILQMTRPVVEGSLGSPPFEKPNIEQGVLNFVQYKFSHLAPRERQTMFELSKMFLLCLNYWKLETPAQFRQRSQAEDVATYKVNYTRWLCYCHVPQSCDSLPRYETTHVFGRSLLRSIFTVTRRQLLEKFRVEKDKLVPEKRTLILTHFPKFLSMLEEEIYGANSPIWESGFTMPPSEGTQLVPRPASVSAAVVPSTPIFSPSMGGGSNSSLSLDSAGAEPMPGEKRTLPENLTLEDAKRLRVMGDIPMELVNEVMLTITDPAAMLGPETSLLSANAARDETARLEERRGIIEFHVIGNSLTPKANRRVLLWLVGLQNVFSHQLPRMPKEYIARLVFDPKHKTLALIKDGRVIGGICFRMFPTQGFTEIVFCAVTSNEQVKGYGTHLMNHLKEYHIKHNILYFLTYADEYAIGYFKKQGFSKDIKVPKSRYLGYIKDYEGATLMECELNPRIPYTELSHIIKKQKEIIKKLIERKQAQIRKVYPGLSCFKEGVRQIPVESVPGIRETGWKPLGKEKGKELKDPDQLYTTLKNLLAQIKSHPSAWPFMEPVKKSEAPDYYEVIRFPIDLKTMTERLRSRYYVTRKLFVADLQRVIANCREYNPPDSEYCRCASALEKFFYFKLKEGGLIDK
In words: Competition NanoBRET on full-length GCN5-Nluc with MS-1 in HEK293T cells. It counts as cell-based.
Description: HEK293T Cell Culture and Transfection
as §1, §2, §3
General NanoBRET Assay Protocol […]
BPTF-BRD BRET assays were conducted using a final MS-1 concentration of 0.5 μM, and PCAF, GCN5, and CECR2 used a final MS-1 concentration of 1 μM. […] BRET was then measured in a Tecan Spark plate reader following a 30 second orbital shake with an amplitude of 1 mm and frequency of 510 rpm.
as §5

Data set [7] addresses PCAF. The arrangement: method as in PMID 27966810. As to conditions: read-out: literature Kd; cited from earlier work.
Data set [8] concerns the target T2, BPTF-BRD. Put plainly: In vitro AlphaScreen competitive inhibition. It counts as biochemical. As to conditions: for IC50: in vitro, BPTF-BRD. A general note: In Alpha technology, singlet oxygen from a donor bead excites a nearby acceptor bead.
Data set [9] concerns the target T5, Nluc-CECR2 (Homo sapiens, UniProt Q9BXF3).
T5 construct: MS-1 was titrated against the N-terminal full length Nluc-CECR2; host or cells: HEK293T
In words: Competition NanoBRET on full-length Nluc-CECR2 with MS-1 in HEK293T cells. Format: cell-based.
Description: MS-1 was titrated against the N-terminal full length Nluc-CECR2.
HEK293T Cell Culture and Transfection
as §1, §2, §3
General NanoBRET Assay Protocol […]
as §4, §5

On the set-up of data set [10]: method as in PMID 34146702. As to conditions: reported PAMPA data; cited from earlier work.
For data set [11], the target named is T1, BPTF-BRD-Nluc. In words: NanoBRET tracer titration against BPTF-BRD-Nluc in HEK293T cells. It counts as cell-based. As to conditions: for EC50: tracer titrated against BPTF-BRD-Nluc, HEK293T cells, n=2.
Data set [12] addresses T2, BPTF-BRD. In words: Kinetic NanoBRET measurement of tracer kon, koff and Kd with the BPTF-BRD. Format: cell-based. Here is the method: Figure 3. A) Tracer titration plots against BPTF-BRD-Nluc in HEK293T cells and their EC50 values. *second replicate EC50 could not be determined due to an incomplete curve. B) Kinetics data with MS-1 at varying concentrations over 25 minutes (truncated from 1 hour). C) Linear plot of kobs values at each concentration of MS-1. The kon and koff values were determined from the linear fit equation and were used to calculate the Kd. D) BI-7190 titration plots at various MS-1 concentrations to determine ideal assay window. EC50 values of BI-7190 are reported at various MS-1 concentrations. All graphical data represents mean ± standard deviation where A, B, and C are technical duplicates with n=2, and D is reported as a technical duplicate with n=3. […] (μM) of the same panel. / Panel D: the concentration row of the table is headed [BI-7190] as printed; it is unclear whether 2, 1, 0.5 and 0.25 μM are concentrations of BI-7190 or of another substance.
Before testing inhibitors, the Kd value of the tracer with the BPTF-BRD was measured kinetically by determining the kon and koff rates of the NanoBRET tracer. The Kd of the tracer enables the conversion of EC50 values to apparent Ki values. Varying concentrations of MS-1 were dosed, and measurements were taken every 35 seconds over the course of one hour (Figure 3B). The association of MS-1 with the BPTF-BRD was fast (~ 15 minutes). Data was fit using one-phase association and kobs values were determined for each concentration. […] This affinity is within two-fold of the EC50 derived for MS-1, indicating good cell permeability of the tracer. Additionally, this moderate affinity is an ideal range for future competition experiments.

The nature of data set [13]: Caco-2 cell-based permeability assay. It counts as in vitro ADME. As to conditions: human, Caco-2, pH 7.4, 2 h at 37 °C. How it is done:
Figure S6. MS-1 titration against Nluc-CECR2 in the presence of either DMSO (purple) or
compound 4 (black) at 100 μM.
Caco-2 Cell-Based Permeability Assay
The Caco-2 permeability assay was conducted as previously described
(PMID: 36793425). Briefly, Caco-2 cells were maintained at 37 °C in a humidified
incubator with 5% CO2, cultured in MEM supplemented with 10% FBS, 100 units/ml of
penicillin, and 100 μg/ml of streptomycin in 75 cm 2 flasks. Cells were seeded onto 96-well
Transwell inserts at a density of 0.165×10^5 cells/insert and cultured for an additional 7
days. Monolayers were washed twice with HBSS/HEPES (10 mM, pH 7.4) before starting
the permeability assay. To initiate the assay, a 10 μmol/L solution of each test compound
was added to either the apical (A) or basolateral (B) side of the inserts. The monolayers
were incubated for 2 h at 37 °C. Samples were collected from both compartments and
compound concentrations were measured by UPLC/MS (Waters; Milford, MA). All
compounds were tested in triplicates.
The apparent permeability coefficient (Papp, cm/s) of each compound in the A→B (or
B→A) direction was calculated using the equation: […]
where dQ/dt is the flux (μmol/s), A is the surface area (cm 2), and C0 is the initial
Chromatographic separation was performed on a Waters Acquity UPLC system coupled
to an SQ mass spectrometer. […]
recording was used for quantification of each compound.

Data set [14] has as its target class I bromodomains PCAF, GCN5, and CECR2. The arrangement: method as in PMID 34515477. As to conditions: off-target activity; read-out: affinities for the other class I bromodomains; cited from earlier work.
For data set [15] the following is noted: known from the literature; cited from earlier work.
The mark [16] stands for this setting: BRET EC50, BPTF-BRD-Nluc, 0.5 μM MS-1, HEK293T cells, n=2.

T3 sequence (Q92831 whole entry): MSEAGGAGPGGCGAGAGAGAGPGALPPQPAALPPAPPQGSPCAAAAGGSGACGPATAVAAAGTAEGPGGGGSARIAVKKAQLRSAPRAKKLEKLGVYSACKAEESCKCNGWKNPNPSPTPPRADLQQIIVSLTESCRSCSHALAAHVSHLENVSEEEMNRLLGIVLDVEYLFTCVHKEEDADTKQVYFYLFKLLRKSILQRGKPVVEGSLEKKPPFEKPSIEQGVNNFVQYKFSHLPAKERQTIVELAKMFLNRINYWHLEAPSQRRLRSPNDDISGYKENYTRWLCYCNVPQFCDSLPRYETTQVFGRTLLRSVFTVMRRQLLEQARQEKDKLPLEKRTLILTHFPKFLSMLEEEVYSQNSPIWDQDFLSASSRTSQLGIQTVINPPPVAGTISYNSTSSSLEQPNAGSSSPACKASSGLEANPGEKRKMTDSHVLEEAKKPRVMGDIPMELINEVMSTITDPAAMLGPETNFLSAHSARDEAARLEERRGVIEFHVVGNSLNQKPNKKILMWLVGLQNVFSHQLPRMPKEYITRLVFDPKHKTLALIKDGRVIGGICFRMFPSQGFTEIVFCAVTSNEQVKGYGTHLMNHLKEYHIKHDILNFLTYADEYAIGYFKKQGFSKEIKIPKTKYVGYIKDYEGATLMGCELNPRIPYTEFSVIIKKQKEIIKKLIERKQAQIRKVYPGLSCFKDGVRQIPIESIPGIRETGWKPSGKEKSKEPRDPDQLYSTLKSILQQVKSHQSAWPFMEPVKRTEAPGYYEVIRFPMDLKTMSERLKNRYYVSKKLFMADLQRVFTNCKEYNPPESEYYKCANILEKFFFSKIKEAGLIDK
T5 sequence (Q9BXF3 whole entry): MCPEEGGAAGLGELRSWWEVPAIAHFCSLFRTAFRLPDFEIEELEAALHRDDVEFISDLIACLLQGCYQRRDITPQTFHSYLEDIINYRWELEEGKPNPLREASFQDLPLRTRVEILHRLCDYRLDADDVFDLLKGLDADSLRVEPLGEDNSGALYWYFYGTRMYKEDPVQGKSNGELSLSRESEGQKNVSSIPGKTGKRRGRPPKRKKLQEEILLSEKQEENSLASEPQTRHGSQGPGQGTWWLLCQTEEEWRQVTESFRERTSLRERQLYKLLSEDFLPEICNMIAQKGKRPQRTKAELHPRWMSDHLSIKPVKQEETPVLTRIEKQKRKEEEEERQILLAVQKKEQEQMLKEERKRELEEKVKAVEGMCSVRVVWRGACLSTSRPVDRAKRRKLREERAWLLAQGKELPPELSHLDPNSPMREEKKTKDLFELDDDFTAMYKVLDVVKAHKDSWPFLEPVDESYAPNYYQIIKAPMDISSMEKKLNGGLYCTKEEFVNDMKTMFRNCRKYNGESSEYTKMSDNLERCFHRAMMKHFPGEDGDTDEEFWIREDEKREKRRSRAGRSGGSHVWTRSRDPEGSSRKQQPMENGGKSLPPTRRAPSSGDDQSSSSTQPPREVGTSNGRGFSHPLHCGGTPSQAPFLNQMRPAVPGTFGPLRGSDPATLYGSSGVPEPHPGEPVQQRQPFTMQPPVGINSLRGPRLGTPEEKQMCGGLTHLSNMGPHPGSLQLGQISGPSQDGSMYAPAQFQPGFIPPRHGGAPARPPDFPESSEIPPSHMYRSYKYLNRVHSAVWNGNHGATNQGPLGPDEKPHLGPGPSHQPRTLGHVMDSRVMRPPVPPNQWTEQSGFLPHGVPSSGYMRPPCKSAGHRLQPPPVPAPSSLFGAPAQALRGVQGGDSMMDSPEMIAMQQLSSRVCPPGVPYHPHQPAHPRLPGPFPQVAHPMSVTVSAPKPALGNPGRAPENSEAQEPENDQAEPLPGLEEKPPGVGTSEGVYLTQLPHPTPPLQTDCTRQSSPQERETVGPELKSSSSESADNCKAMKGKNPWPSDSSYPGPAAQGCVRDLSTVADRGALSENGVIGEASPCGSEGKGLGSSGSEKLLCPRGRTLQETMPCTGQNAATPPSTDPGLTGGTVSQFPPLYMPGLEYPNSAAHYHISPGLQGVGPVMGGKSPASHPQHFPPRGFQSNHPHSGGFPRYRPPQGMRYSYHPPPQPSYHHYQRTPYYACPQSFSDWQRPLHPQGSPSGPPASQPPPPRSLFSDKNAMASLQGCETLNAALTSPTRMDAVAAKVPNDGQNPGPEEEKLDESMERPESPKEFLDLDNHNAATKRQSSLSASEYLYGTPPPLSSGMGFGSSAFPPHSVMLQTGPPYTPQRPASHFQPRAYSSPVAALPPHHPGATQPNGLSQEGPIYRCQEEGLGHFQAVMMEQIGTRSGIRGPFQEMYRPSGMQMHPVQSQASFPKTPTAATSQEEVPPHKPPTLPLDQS

In general, EC50 refers to the concentration that produces a half-maximal response. For `CN(C)CCCn1ccc2cc(-c3nc(S(C)(=O)=O)nc4[nH]ccc34)ccc21` [DC-BPi-11], the response in data set [1] (setting [16]) was half-maximal at 0.45 ± 0.02 µM (EC50).

As for `COc1cc(-c2cn(C)c(=O)c(C)c2C)ccc1C1(N2CCN(C)CC2)CC1` [BI-7190], the EC50 in [2] is 0.058 µM; in data set [1] (setting [16]) it was 0.066 ± 0.003 µM; in data set [1] (EC50, printed [BI-7190]: 0.25 μM (MS-1 concentration per legend), n=3), 0.07 ± 0.01 µM; in data set [1] (EC50, printed [BI-7190]: 0.5 μM (MS-1 concentration per legend), n=3), 0.1 ± 0.01 µM; in data set [1] (EC50, printed [BI-7190]: 1 μM (MS-1 concentration per legend), n=3), 0.16 ± 0.02 µM; in data set [1] (EC50, printed [BI-7190]: 2 μM (MS-1 concentration per legend), n=3), 0.2 ± 0.01 µM. In data set [3], the “Caco-2 or PAMPA: Caco-2” value is 21 10^-6 cm/s. Also, the Kd in data set [4] is 0.085 µM.

Take `Cc1nnc2c3ccccc3c(N[C@@H](C)[C@H](c3ccccc3)N(C)C)nn12` [L-Moses, reference compound]: the EC50 in data set [5] (PCAF-Nluc, 1 μM MS-1, n=2, read-out: BRET EC50) came out at 0.28 ± 0.05 µM; in [6] (GCN5-Nluc, 1 μM MS-1, n=2, read-out: BRET EC50) it was 0.5 ± 0.06 µM. Besides, the Kd in data set [7] was 0.126 µM.

In the case of `COC(=O)c1cccc(NC(=O)N[C@H]2CCN(c3ccnc(Nc4ccc(F)cc4)n3)C2)c1` [S-AU1], the “inhibition of the BPTF-BRD in NanoBRET titration” value in data set [1] is reported as “neither showed full inhibition”.

For orientation: IC50 means the point on the concentration scale where inhibition reaches its midpoint. Higher therefore signals weaker potency in that assay. `CN1CCc2ccc(Nc3cnn(C)c(=O)c3Cl)cc2C1` [compound 6] gave an IC50 in data set [8] of 2.1 µM. The response in [1] (setting [16]) was half-maximal at 4 ± 0.3 µM (EC50).

Take `CN(C)CCCOc1ccc(-c2cc(NCCCn3cccn3)nc(S(C)(=O)=O)n2)cc1` [TP-238]: the EC50 was 0.62 ± 0.06 µM in data set [9] (Nluc-CECR2, n=2, MS-1 1 μM in text and SI, 0.5 μM in Figure 6 legend, read-out: BRET EC50); 1.2 ± 0.1 µM in data set [1] (setting [16]). In addition, in data set [10], the “Caco-2 or PAMPA: PAMPA” value is given as 28 10^-6 cm/s.

The koff is a measure of how fast the partners let go of each other. A word on the kon: it is the rate constant with which the complex forms. A higher kon goes with faster complex formation. For `Cn1ncc(Nc2ccc3c(c2)CCN(CCCCNC(=O)CCc2ccc4n2[B-](F)(F)[N+]2=C(c5ccc[nH]5)C=CC2=C4)C3)c(Cl)c1=O` [MS-1], the assay window is reported as approximately 20 mBu in data set [5] (1 μM MS-1, PCAF-Nluc); 60 mBu in data set [11] (tracer titration, BPTF-BRD-Nluc construct); “around 20 mBu” in [9] (1 μM MS-1, Nluc-CECR2); approximately 20 mBu in [6] (1 μM MS-1, GCN5-Nluc); approximately 30 mBu in data set [1] (0.5 μM MS-1, BPTF-BRD-Nluc). Besides, the “competition of tracer by compound 4 (non-specific interactions)” value is listed as “competed away” in [5] (PCAF-Nluc, 4 at 100 μM); “largely competed away” in [11] (BPTF-BRD-Nluc, 25X molar excess of 4 (100 μM)); “less-efficient competition” in data set [9] (Nluc-CECR2, 4 at 100 μM); “competed away” in [6] (GCN5-Nluc, 4 at 100 μM). In [11], the EC50 turned out to be 0.6 ± 0.1 µM. In data set [12] (linear fit of kobs vs [MS-1]), this compound came in with a koff of 0.00181 ± 3e-05 s⁻¹. The kon in data set [12] (linear fit of kobs vs [MS-1]) was determined as 1800 ± 400 M⁻¹ s⁻¹. For the same compound, the Kd in data set [12] (measured kinetically, calculated from kon and koff) was 1.1 ± 0.3 µM. The “association with the BPTF-BRD (time)” value in [12] (measurements every 35 seconds over one hour) is on record as ~ 15 minutes.

For the compound `COC(=O)c1cccc(NC(=O)NC2CCN(c3ccnc(Nc4ccc(F)cc4)n3)C2)c1` (racemic) [AU1 (Rac)], the “inhibition of the BPTF-BRD in NanoBRET titration” value in data set [1] is listed as “neither showed full inhibition”.

The term Papp denotes the rate of passage across a membrane or cell layer, normalised by area and donor concentration. A low value points to poor permeation. With `CN1CCc2cc(Nc3ncn(C)c(=O)c3Cl)ccc2C1` [compound 5], the “fold lower affinity in vitro” value in [8] (compound 5 compared with compound 4, AlphaScreen IC50) worked out at 2.5 fold. The IC50 in data set [8] turned out to be 0.66 ± 0.04 µM. In data set [13], this compound had a Papp at 2 h, 10 μmol/L of 700 ± 800 nm/s. Moreover, the EC50 in data set [1] (setting [16]) amounted to 1.4 ± 0.2 µM. For the same compound, in data set [1] (compound 5 compared with compound 4, NanoBRET EC50), the “fold lower affinity in cells” value came to 1.5 fold.

On to `CN1CCc2cc(Nc3cnn(C)c(=O)c3Cl)ccc2C1` [compound 4], for which the IC50 in data set [8] was 0.26 µM. The compound further registered a Papp at 2 h, 10 μmol/L in [13] of 470 ± 200 nm/s. Also, the EC50 in [1] (setting [16]) is 0.9 ± 0.2 µM.

For `Cn1ncc(Nc2ccc(CCN)cc2)c(Cl)c1=O` [BZ1], the “Caco-2 or PAMPA: Caco-2” value in data set [3] is recorded as 0.9 ± 5 10^-6 cm/s. The Kd in data set [14] was 0.011 to 0.044 µM.

The compound `Cn1ncc(Nc2ccc3c(c2)CCN(CCCCNC(=O)CCOCCOCCOCCOCCNC(=O)CCc2ccc4n2[B-](F)(F)[N+]2=C(c5ccc[nH]5)C=CC2=C4)C3)c(Cl)c1=O` [MS-3] returned an EC50 in data set [11] of 3.7 µM.

`Cc1c(Nc2ccc(S(=O)(=O)N3CCN(C)CC3)cc2F)nc2ccc(-c3cnn(C4CC4)c3)cn2c1=O` [NVS-BPTF-1]: the solubility result in data set [15] is given as “poor solubility”. Also, the EC50 in data set [1] (setting [16]) was 0.4 ± 0.05 µM. Moreover, the “Caco-2 or PAMPA: PAMPA” value in data set [10] is reported as 16 10^-6 cm/s.

For `Cn1ncc(Nc2ccc3c(c2)CCN(CCCCNC(=O)CCCNC(=O)CCc2ccc4n2[B-](F)(F)[N+]2=C(c5ccc[nH]5)C=CC2=C4)C3)c(Cl)c1=O` [MS-2], the EC50 in [11] was determined as 3.3 ± 0.1 µM.
